Measured values published in patent US8865672B2, “Prevention of tissue ischemia and related methods” (The United States of America, as represented by the …, priority 2006, dated 2014).

Columns and labels:
[1] = system: random myocutaneous flaps in mice; experiment: Random myocutaneous (McFarlane) flap model; type: in vivo, mouse
Experimental: WT and TSP1 null mice were matched for sex and age. Under isoflurane inhalation anesthesia 1×2 cm random myocutaneous flaps were raised. Where indicated, animals received either L-NAME (0.5 mg/ml) or ISDN (1 mg/ml) ad libitum in drinking water during the post-operative period. On postoperative day 7, the animals were again anesthetized with inhalation isoflurane and flaps evaluated. Viable and necrotic areas of the flaps were determined by color, refill, eschar, and the pin-prick test. Outlines of viable and nonviable areas were traced using transparent film and the area of flap necrosis versus total flap area determined as described (Yu et al., Proc Natl Acad Sci USA 102:10999-11004, 2005).
Wild type, TSP1 null, CD36 null and CD47 null mice were matched for sex and age underwent random dorsal myocutaneous flaps as described (Isenberg et al., Blood 2006; Example 2) and tissue harvested on postoperative day 7.
The necrotic area of the flap was determined as described (Isenberg et al., Blood. Nov. 2, 2006) Animals were then euthanized and flaps excised, fixed in 10% paraformaldehyde and processed for histology.
Random myocutaneous flap wound beds and/or ischemic hindlimb vastus medialis muscle was assessed at indicated time points (72 hours or 7 days post-operatively) for visible alterations in vascularity under 5× magnification. An arbitrary though strictly applied definition of countable vessels was employed to highlight both individual vessels and vascular ramifications. In any given vascular plexus visible by 5× magnification a vessel was defined as that segment traversing two branches. Visible vessels without ramifications and branches were counted once. Treatment status and genetic background of tissue images was not known by the reviewer.
Animals underwent creation of a random myocutaneous (McFarlane) flap as previously described (Isenberg et al., Blood 109:1945-1952, 2007). Some animals received either ISDN (1 mg/mL) or L-NAME (0.5 mg/ml) ad libitum in the drinking water during the post-operative interval.
Flap soft tissue units and underling wound beds were injected with control vehicle (normal saline), a CD47 morpholino or a control morpholino (10 μM) in sterile saline. Flap survival was determined as described.

human aortic VSMC = experiment: Intracellular cGMP in human aortic VSMC after morpholino; type: cell-based; conditions: for TSP1 inhibition of NO-driven cGMP accumulation: human aortic VSMC pre-treated with morpholino
Experimental: (§1) Human aortic VSMC were plated onto 12-well culture plates (Nunc) at a density of 5×10^4 cells/well in SM-GM+2% FCS and cultured until approximately 90% confluent. A translation-blocking antisense morpholino oligonucleotide complementary to human and murine CD47 ([…]; SEQ ID NO: 21) and a five-base mismatch control (CGTgACAGcCAcGACCgACTGCgCA; SEQ ID NO: 22) were obtained from GeneTools (Philomath, Oreg.). Cultured cells were treated as per the manufacturer's recommendation with morpholinos (10 μM) and utilized within 48 hours of treatment.
cGMP was determined in human aortic VSMC via immunoassay as described (Isenberg et al., Blood 2006; Example 2). In some situations cells were pretreated with a CD47 or control morpholino prior to assay.

HAVSMC = experiment: 3D collagen matrix contraction assay, human aortic VSMC; type: cell-based; conditions: for TSP1 block of NO relaxation of FCS-induced gel contraction: human aortic VSMC pretreated with 10 μM morpholino
Experimental: Type I collagen gel (3 mg/ml) with 10×M199 (Gibco, Grand Island, N.Y.) at a 10:1 ratio of collagen to medium was prepared, pH balanced with NaOH and seeded with either HAVSMC or VSMC harvested from aortic segments from C57B16 WT or TSP1 null mice (50,000 cells in 75 μl of gel/well) and aliquoted to 96-well plates (Nunc, Denmark). Plates were incubated for 12 h 37° C. and 5% CO2 allowing for gelation and cell spreading, gently released from the well walls and incubated in serum and additive deficient growth medium with 0.1% BSA in the presence of the indicated treatment agents for 10 h. Contraction was determined by measuring the diameter in perpendicular planes (x, y) of each disk, an average obtained and surface area calculated as (d/2)^2π. Experiments were performed in triplicate. Results represent the mean±SD of at least three separate experiments.
as §1

[2] = system: ischemic hindlimbs in mice; experiment: Hindlimb ischemia model; type: in vivo, mouse; conditions: ischemic wild type hindlimbs; for hindlimb tissue necrosis: morpholino 10 μM to thigh musculature
Experimental: Wild type C57BL6, TSP1 null, CD47 null and CD36 null mice, age and sex matched, underwent ligation of the left external iliac and common femoral arteries. The right limb served as control. All animals underwent examination every 24 h to assess clinical ischemia based on a previously published index (Paek et al., J Vasc Surg. 36:172-179, 2002). At the end of 3 or 7 days animals were euthanized, and the tibialis anterior muscles from the right and left limbs were harvested, weighed and processed for mitochondrial viability.
Mitochondrial viability of hindlimb muscle biopsies was assessed by the reduction of a tetrazolium salt to water insoluble formazan through mitochondrial oxidation as described (Bonheur et al., J Surg Res. 116:55-63, 2004). Tibialis anterior muscle biopsies were weighed and incubated in 3 ml of PBS supplemented 1:10 with 3-(4,5-dimethylthiazol-2-yl)-2,5 diphenyl tetrazolium stock (MTT, Promega, Madison, Wis.) for 3 h in the dark at 37° C., washed with distilled water and blotted dry. The formazan salt was extracted in 3 ml of 2-propranol for 6 hours in the dark at 37° C. Absorbance for 200 μl aliquots was determined at 425 nm on a microplate reader. Muscle samples were dried at 90° C. and weighed again. Results were expressed as absorbance normalized to dry tissue weight.

CD47 = experiment: Western analysis of CD47 in HUVEC; type: cell-based, human; conditions: morpholino 0.1-10 μM, 48 h
Experimental: HUVEC were plated in 12-well culture plates (5×10^4 cells/well) (Nunc, Denmark) in full growth medium and treated over 48 h with indicated doses of CD47 and control morpholino. Cells were subsequently washed twice with PBS and lysed immediately in 1×SDS sample buffer containing 10 µg/mL leupeptin, […] aprotinin, 1 mM Na3VO4, and 40 mM NaF. Lysates prepared in the SDS sample buffer described above were electrophoresed in 4-12% BisTris NuPAGE gels and transferred to PVDF membranes prior to immunoblotting with a monoclonal antibody to CD47 (clone B6H12, Lab Visions, Inc, Fremont, Calif.). The membrane was stripped and reprobed with a monoclonal antibody against β-actin (Sigma-Aldrich, St. Louis, Mo.).

[3] = WT mice 14-18 months, injected to flap and wound bed
[4] = wild type flaps, local injection, day 7
[5] = wild type flaps, morpholino 10 μM

| Substance | flap tissue survival ([1]; ApoE-null mice 12-16 months, high fat diet, day 7) [%] | flap tissue survival [1, 3] | flap mitochondrial viability ([1]; aged WT flaps) | remodeling of collateral flap vessels ([1]; aged WT flaps) | flap tissue survival [1, 4] | CD47 immunohistochemical staining of flaps [1, 5] | wound bed vascularity [1, 5] | TSP1 inhibition of NO-driven cGMP accumulation (human aortic VSMC) | TSP1 block of NO relaxation of FCS-induced gel contraction (HAVSMC) | muscle mitochondrial viability [2] | hindlimb tissue necrosis [2] | CD47 expression (Western) (CD47) | NO-driven cGMP flux (human aortic VSMC; untreated VSMC) | inhibitory activity of NO on gel contraction (HAVSMC; HAVSMC, DETA/NO 10 μM, TSP1 2.2 nM) |
| --- | --- | --- | --- | --- | --- | --- | --- | --- | --- | --- | --- | --- | --- | --- |
| CGTCACAGGCAGGACCCACTGCCCA (all phosphorodiamidate morpholino (PMO)) [CD47 morpholino] | 84±7 | 91±4% | markedly increased | substantial remodeling of existing collateral flap vessels | ~100% | decreased protein staining | substantial increases in visible blood vessels | essentially blind to the inhibitory effects of TSP1 | TSP1 was not able to block this relaxation | increased muscle mitochondrial viability | essentially no tissue necrosis | Effective dose-dependent suppression of CD47 |  |  |
| TSP1: thrombospondin-1 prepared from human platelets |  |  |  |  |  |  |  |  |  |  |  |  | complete inhibition of an NO-driven cGMP flux | completely abrogated |
| CGTgACAGcCAcGACCgACTGCgCA (antisense CGTGACAGCCACGACCGACTGCGCA; all phosphorodiamidate morpholino (PMO)) [control morpholino, reference compound] |  | degrees of tissue necrosis comparable to untreated aged WT animals |  |  | necrosis comparable to that for untreated wild type flaps |  |  | retained sensitivity to inhibition | remained sensitive to TSP1 inhibition |  | did not protect | did not show suppression of CD47 |  |  |
